Data published in patent publication US20150284364A1, “SUBSTITUTED INDOLE DERIVATIVES” (priority 2012, published 2015).
Converted amounts (≈) assume the structure as drawn.

Key:
[1] = system: Bone marrow cells from CBA mice; assay: Bone marrow cell proliferation (BM) assay; assay type: cell-based; conditions: Mus musculus, 3H-thymidine incorporation, four days incubation
Experimental: Bone marrow cells from CBA mice (2.5×10^4 cells per well in flat bottom tissue culture microtiter plates) were incubated in 100 μL RPMI medium containing 10% FCS, 100 U/mL penicillin, 100 μg/mL streptomycin (Gibco BRL, Basel Switzerland), 50 μM 2-mercaptoethanol (Fluka, Buchs, Switzerland), WEHI-3 conditioned medium (7.5% v/v) and L929 conditioned medium (3% v/v) as a source of growth factors and serially diluted compounds. Seven three-fold dilution steps in duplicates per test compounds were performed. After four days of incubation 1 μCi ^3H-thymidine was added. Cells were harvested after an additional five-hour incubation period, and incorporated ^3H-thymidine was determined according to standard procedures. Conditioned media were prepared as follows. WEHI-3 cells (ATCC TIB68) and L929 cells (ATCC CCL 1) were grown in RPMI medium until confluence for 4 days and one week, respectively. Cells were harvested, resuspended in the same culture flasks in medium C containing 1% FCS (Schreier and Tess 1981) for WEHI-3 cells and RPMI medium for L929 cells and incubated for 2 days (WEHI-3) or one week (L929). The supernatant was collected, filtered through 0.2 μm and stored in aliquots at −80° C. Cultures without test compounds and without WEHI-3 and L929 supernatants were used as low control values. Low control values were subtracted from all values. […]

[2] = Blood levels and pharmacokinetics after oral administration of compound of example No. 1; assay type: in vivo, Beagle dogs; conditions: example 3 main component in blood after around an hour
Experimental: A single dose of the compound of example 1 (3.0 mg/kg) was administered p.o. to 3 male Beagle dogs. Compound 1 was dosed as an aqueous suspension of the crystalline monohydrate form in Methylcellulose (0.5%): Tween 80 (1%) (90:10). Blood was taken in regular intervals by venipuncture, and the samples were analyzed for a period of up to 24 hours. The compounds of the examples 1, 2, and 3 were quantitatively assessed over time, and the results are tabulated below:
Key pharmacokinetic parameters (mean values±standard deviations (n=3) for 1, 2 and 3 after oral dosing of example No. 1.

[3] = Solubility in simulated gastric and intestinal fluids; assay type: physicochemical; conditions: for Final pH: solubility test
Description: Solubility of compound Example No. 1 in simulated gastric and in simulated intestinal fluids at room temperature
Solubility of compound Example No. 3 (free form/acetate salt form) in simulated gastric fluids: […]

[4] = Chemical stability of amorphous and crystalline example No. 1 (solid state); assay type: physicochemical; conditions: for Purity: 1 week; for Initial Purity: before exposure
[5] = Chemical stability of the trihydrate of example 1; assay type: physicochemical
[6] = Physical stability: equilibration of suspension, XRPD of isolated solid; assay type: physicochemical; conditions: based upon the equilibration experiments
Experimental: Samples of example 1 free base which are a mixture of monohydrate and trihydrate were suspended in an organic solvent water mixture of water and equilibrated for about 4 days at 25°. […] After equilibration the suspension was filtered and the solid material isolated and analysed by XRPD.

For `Cc1cccc2c(C3=C(c4nc(N5CCNC6(CC6)C5)cc5ccccc45)C(=O)N(COP(=O)(O)O)C3=O)c[nH]c12` [Example 1, Phosphoric acid mono-[3-[3-(4,7-diaza-spiro[2.5]oct-7-yl)-isoquinolin-1-yl]-4-(7-methyl-1H-indol-3-yl)-2,5-dioxo-2,5-dihydro-pyrrol-1-ylmethyl]ester], the IC50 [1] was 6740 ± 1120 nM, the “conversion of prodrug into parent compound in blood” value [2] was “effective and favorable conversion into a parent compound” and the solubility ([3]; Fasted state simulated intestinal fluid (FaSSIF) pH 6.5, room temperature) was 100 µg/mL (≈ 174 µM). The solubility ([3]; Fed state simulated intestinal fluid (FeSSIF) pH 5.8, room temperature) was 130 µg/mL (≈ 227 µM), the solubility ([3]; Simulated gastric fluid (SGF) pH 2, room temperature) was 40 µg/mL (≈ 69.7 µM) and the “Final pH” value ([3]; FaSSIF pH 6.5) was 6.59. The “Final pH” value ([3]; FeSSIF pH 5.8) was 6.05, the “Final pH” value ([3]; SGF pH 2) was 2.22 and the Purity ([4]; Amorphous, 50 ° C.) was 95.8%. The Purity ([4]; Amorphous, 80 ° C.) was 89.7%, the “Initial Purity” value ([4]; Amorphous) was 98.5% and the Purity ([4]; Crystalline monohydrate, 50 ° C.) was 100%. The Purity ([4]; Crystalline monohydrate, 80 ° C.) was 100%, the “Initial Purity” value ([4]; Crystalline monohydrate) was 100% and the “Purity of example 1 in %” value ([5]; 2 weeks 50° C.) was 95.57%. For the same compound, the “Sum of related. Substances in area %” value ([5]; 2 weeks 50° C.) was 4.52 area %, the “Purity of example 1 in %” value ([5]; 2 weeks 50° C./75% RH) was 96.20% and the “Sum of related. Substances in area %” value ([5]; 2 weeks 50° C./75% RH) was 3.66 area %. The “Purity of example 1 in %” value ([5]; initial) was 98.06% and the “Sum of related. Substances in area %” value ([5]; initial) was 1.64 area %.
With `Cc1cccc2c(C3=C(c4nc(N5CCNC6(CC6)C5)cc5ccccc45)C(=O)NC3=O)c[nH]c12` [Example 3, 3-[3-(4,7-diaza-spiro[2.5]oct-7-yl)-isoquinolin-1-yl]-4-(7-methyl-1H-indol-3-yl)-pyrrole-2,5-dione] the IC50 [1] was 1670 ± 256 nM, the “Final pH” value ([3]; Acetate Salt, FaSSIF pH 6.5) was 3.97 and the “Final pH” value ([3]; Acetate Salt, FeSSIF pH 5.8) was 6.5. The “Final pH” value ([3]; Acetate Salt, SGF pH 2) was 5.45, the solubility ([3]; fasted state simulated intestinal fluid (FaSSIF), Acetate Salt, FaSSIF pH 6.5) was 50 µg/mL and the solubility ([3]; fed state simulated intestinal fluid (FeSSIF), Acetate Salt, FeSSIF pH 5.8) was 550 µg/mL. It also gave a solubility ([3]; simulated gastric fluid (SGF), simulated gastric fluid, Acetate Salt, SGF pH 2) of 150 µg/mL.
With `Cc1cccc2c(C3=C(c4nc(N5CCNC6(CC6)C5)cc5ccccc45)C(=O)N(COP(=O)(O)O)C3=O)c[nH]c12.O.O.O` [trihydrate of example 1, phosphoric acid mono-[3-[3-(4,7-diaza-spiro[2.5]oct-7-yl)-isoquinolin-1-yl]-4-(7-methyl-1H-indol-3-yl)-2,5-dioxo-2,5-dihydro-pyrrol-1-ylmethyl]ester, trihydrate] the “relative thermodynamic stability of hydrate forms” value [6] was “thermodynamically more stable than the monohydrate”.
